According to patent US5811558A, “Process for the resolution of etodolac using glucamine derivatives” (priority 1994, dated 1998):
Counter-ions that a name gives are not always drawn.

Assays:
[1] = open randomised two way crossover pharmacokinetic study in healthy male volunteers, single oral dose; assay type: in vivo, human (healthy male volunteers); conditions: for half-life: t1/2
Experimental: (§1) An open randomised two way crossover study was conducted on a group of 13 healthy male volunteers to investigate the pharmacokinetics of the meglumine salt of (S)-etodolac and racemic etodolac (Lodine®); 11 volunteers received both treatments. Doses used were […] of the meglumine salt (equivalent to 100 mg of the free acid) and 200 mg of racemic etodolac. Blood samples were taken regularly.
The results of the pharmacokinetic study are shown in Table 1 and in FIGS. 1 and 2 below.
FIG. 1 is a graph of plasma concentration (μg/ml) of the (S)enantiomer for all volunteers receiving a single oral dose of 200 mg of racemic etodolac.
FIG. 2 is a graph of plasma concentration (μ/ml) of the (S) enantiomer for all volunteers receiving a single oral dose of 168 mg of the meglumine salt of (S)-etodolac (100 mg free acid equivalent).

[2] = design: species or system human (healthy male volunteers); conditions: human, in vivo
Experimental: as §1
Etodolac had no affect on vital signs, ECGs, physical examinations or on any clinical laboratory assessments, including serum biochemistry, haematology and urinalysis, when administered in either form.

[3] = free acid, Lee et al, J. Pharm. Sci. (1988); cited from earlier work

| t1/2 comparison in words ([1]; human, in vivo) | tmax ([1]; human, in vivo, po) | half-life ([1]; human, in vivo, po) | peak plasma concentrations in words ([1]; human, in vivo) | appearance in plasma in words ([1]; meglumine salt dosed orally) | plasma concentrations of (R)-etodolac relative to (S)-etodolac ([1]; human, in vivo, po) | tmax ([1]; human, in vivo, po, tmax) | Structure (SMILES) | effect on vital signs, ECGs, physical examinations or clinical laboratory assessments (serum biochemistry, haematology, urinalysis) [2] | stability on heating under acidic conditions [3] |
| --- | --- | --- | --- | --- | --- | --- | --- | --- | --- |
| markedly lower | 1.23 h | ~2 h |  |  |  |  | CCc1cccc2c3c([nH]c12)[C@](CC)(CC(=O)O)OCC3 [(S)-etodolac] |  |  |
|  | 0.333 h |  | significantly higher | appears in the plasma very rapidly |  |  | CCc1cccc2c3c([nH]c12)[C@](CC)(CC(=O)O)OCC3 [Meglumine salt of (S)-etodolac] |  |  |
| substantially eguivalent |  | ~7 h |  |  | about 10 times higher | 1.73 h | CCc1cccc2c3c([nH]c12)[C@@](CC)(CC(=O)O)OCC3 [(R)-etodolac] |  |  |
| substantially eguivalent |  | 7.14 h |  |  |  | 1.67 h | CCc1cccc2c3c([nH]c12)C(CC)(CC(=O)O)OCC3 (racemic) [racemic etodolac] | no affect | leads to its decomposition |
